Key:
VERPE [1] = test: Post-emergence action against VERPE, 1.28 kg/ha; type: in vivo, Veronica persica; settings: dosage 1280 g/ha, visual rating about 3 weeks after treatment vs untreated controls (100% = plants died)
Procedure, shortened: (§1)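 Activity scored visually roughly 3 weeks after treatment against untreated plants (0% = as control, 100% = dead). Plants grown in sandy loam in greenhouse, treated at one-leaf stage, 2–3 weeks post-sowing, with WP/EC spray containing 0.5% additive at 600 l/ha.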

ABUTH [2] = test: Post-emergence action against ABUTH, 1.28 kg/ha; type: in vivo, Abutilon theophrasti; settings: dosage 1280 g/ha, visual rating about 3 weeks after treatment vs untreated controls (100% = plants died)
Procedure, shortened: as §1

AMARE [3] = test: Pre-emergence action against AMARE, 1280 g/ha; type: in vivo, Amaranthus retroflexus; settings: scored visually after about 3 weeks vs untreated controls (100% = plants have died)
Procedure, shortened: (§2)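 Greenhouse pre-emergence test on sown seeds in sandy loam; soil-surface spray of formulated compound with 0.5% additive at 600 L/ha water. Scored visually, % vs untreated, after about 3 weeks.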

ECHGC = test: Pre-emergence action at 320 g/ha against ECHGC; type: in vivo, Echinochloa crus-galli; settings: visual scoring after about 3 weeks vs untreated controls
Procedure, shortened: (§3)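 Effect rated visually (% vs untreated control) about 3 weeks after pre-emergence spraying of WP/EC formulation onto soil; spray carried 0.5% additive at 600 l/ha water.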

LOLRI [4] = test: Pre-emergence action against LOLRI, 1280 g/ha; type: in vivo, Lolium rigidum; settings: visual scoring after about 3 weeks vs untreated controls, 100% = plants have died, 0% = like control plants
Procedure, shortened: as §2

ABUTH [5] = test: Pre-emergence action at 320 g/ha against ABUTH; type: in vivo, Abutilon theophrasti; settings: greenhouse, scored visually after about 3 weeks vs untreated controls, 100% = plants have died, 0% = like control plants
Source text: b) Seeds of monocotyledonous and dicotyledonous weed plants and crop plants are placed in plastic or organic planting pots and covered with soil. The compounds of the invention, formulated in the form of wettable powders (WP) or as emulsion concentrates (EC), are then applied onto the surface of the covering soil as aqueous suspension or emulsion with addition of 0.5% additive at a water application rate of 600 l/ha (converted). After the treatment, the pots are placed in a greenhouse and kept under good growth conditions for the trial plants. After about 3 weeks, the effect of the preparations is scored visually in comparison with untreated controls as percentages. For example, 100% activity=the plants have died, 0% activity=like control plants. Tables 13 to 26 below show the effects of selected compounds of the general formula (I) on various harmful plants and at an application rate corresponding to 320 g/ha, which were obtained by the experimental procedure mentioned above.

VERPE [6] = test: Pre-emergence action at 320 g/ha against VERPE; type: in vivo, Veronica persica; settings: visual scoring after about 3 weeks vs untreated controls
Procedure, shortened: as §3

ALOMY [7] = test: Post-emergence action against ALOMY, 1.28 kg/ha; type: in vivo, Alopecurus myosuroides; settings: dosage 1280 g/ha, visual rating about 3 weeks after treatment vs untreated controls
Procedure, shortened: as §1

SETVI [8] = test: Pre-emergence action at 320 g/ha against SETVI; type: in vivo, Setaria viridis; settings: visual scoring after about 3 weeks vs untreated controls
Procedure, shortened: as §3

MATIN [9] = test: Pre-emergence action at 320 g/ha against MATIN; type: in vivo, Tripleurospermum inodorum (Matricaria inodora); settings: visual scoring after about 3 weeks vs untreated controls
Procedure, shortened: as §3

AVEFA = test: Pre-emergence action at 320 g/ha against AVEFA; type: in vivo; settings: visual scoring after about 3 weeks vs untreated controls
Procedure, shortened: as §3

DIGSA [10] = test: Post-emergence action against DIGSA, 1.28 kg/ha; type: in vivo, Digitaria sanguinalis; settings: dosage 1280 g/ha, visual rating about 3 weeks after treatment vs untreated controls
Procedure, shortened: as §1

POLCO = test: Pre-emergence action at 320 g/ha against POLCO; type: in vivo, Fallopia convolvulus (Polygonum convolvulus); settings: visual scoring after about 3 weeks vs untreated controls
Procedure, shortened: as §3

ECHCG [11] = test: Post-emergence action against ECHCG, 1.28 kg/ha; type: in vivo, Echinochloa crus-galli; settings: dosage 1280 g/ha, visual rating about 3 weeks after treatment vs untreated controls
Procedure, shortened: as §1

LOLRI [12] = test: Pre-emergence action at 320 g/ha against LOLRI; type: in vivo, Lolium rigidum; settings: visual scoring after about 3 weeks vs untreated controls
Procedure, shortened: as §3

VERPE [13] = test: Pre-emergence action against VERPE, 1280 g/ha; type: in vivo, Veronica persica; settings: scored visually after about 3 weeks vs untreated controls (100% = plants have died)
Procedure, shortened: as §2

ALOMY [14] = test: Pre-emergence action at 320 g/ha against ALOMY; type: in vivo, Alopecurus myosuroides; settings: scored visually after about 3 weeks vs untreated controls (100% = plants have died)
Procedure, shortened: as §3

DIGSA [15] = test: Pre-emergence action against DIGSA, 1280 g/ha; type: in vivo, Digitaria sanguinalis; settings: visual scoring after about 3 weeks vs untreated controls, 100% = plants have died, 0% = like control plants
Procedure, shortened: as §2

DIGSA [16] = test: Pre-emergence action at 320 g/ha against DIGSA; type: in vivo, Digitaria sanguinalis; settings: visual scoring after about 3 weeks vs untreated controls
Procedure, shortened: as §3

ECHCG [17] = test: Pre-emergence action against ECHCG, 1280 g/ha; type: in vivo, Echinochloa crus-galli; settings: visual scoring after about 3 weeks vs untreated controls, 100% = plants have died, 0% = like control plants
Procedure, shortened: as §2

STEME [18] = test: Pre-emergence action against STEME, 1280 g/ha; type: in vivo, Stellaria media; settings: scored visually after about 3 weeks vs untreated controls (100% = plants have died)
Procedure, shortened: as §2

VIOTR = test: Pre-emergence action at 320 g/ha against VIOTR; type: in vivo, Viola tricolor; settings: dosage 320 g/ha
Procedure, shortened: as §3

POAAN [19] = test: Post-emergence action against POAAN, 1.28 kg/ha; type: in vivo, Poa annua; settings: dosage 1280 g/ha, visual rating about 3 weeks after treatment vs untreated controls
Procedure, shortened: as §1

SETVI [20] = test: Pre-emergence action against SETVI, 1280 g/ha; type: in vivo, Setaria viridis; settings: visual scoring after about 3 weeks vs untreated controls, 100% = plants have died, 0% = like control plants
Procedure, shortened: as §2

AMARE [21] = test: Post-emergence action against AMARE, 1.28 kg/ha; type: in vivo, Amaranthus retroflexus; settings: dosage 1280 g/ha, visual rating about 3 weeks after treatment vs untreated controls (100% = plants died)
Procedure, shortened: as §1

AMARE [22] = test: Pre-emergence action at 320 g/ha against AMARE; type: in vivo, Amaranthus retroflexus; settings: visual scoring after about 3 weeks vs untreated controls
Procedure, shortened: as §3

ALOMY [23] = test: Pre-emergence action against ALOMY, 1280 g/ha; type: in vivo, Alopecurus myosuroides; settings: visual scoring after about 3 weeks vs untreated controls, 100% = plants have died, 0% = like control plants
Procedure, shortened: as §2

POAAN [24] = test: Pre-emergence action against POAAN, 1280 g/ha; type: in vivo, Poa annua; settings: visual scoring after about 3 weeks vs untreated controls, 100% = plants have died, 0% = like control plants
Procedure, shortened: as §2

MATIN [25] = test: Pre-emergence action against MATIN, 1280 g/ha; type: in vivo, Tripleurospermum inodorum (Matricaria inodora); settings: scored visually after about 3 weeks vs untreated controls (100% = plants have died)
Procedure, shortened: as §2

LOLRI [26] = test: Post-emergence action against LOLRI, 1.28 kg/ha; type: in vivo, Lolium rigidum; settings: dosage 1280 g/ha, visual rating about 3 weeks after treatment vs untreated controls
Procedure, shortened: as §1

PHBPU = test: Pre-emergence action at 320 g/ha against PHBPU; type: in vivo; settings: visual scoring after about 3 weeks vs untreated controls
Procedure, shortened: as §3

ABUTH [27] = test: Pre-emergence action against ABUTH, 1280 g/ha; type: in vivo, Abutilon theophrasti; settings: scored visually after about 3 weeks vs untreated controls (100% = plants have died)
Procedure, shortened: as §2

SETVI [28] = test: Post-emergence action against SETVI, 1.28 kg/ha; type: in vivo, Setaria viridis; settings: dosage 1280 g/ha, visual rating about 3 weeks after treatment vs untreated controls
Procedure, shortened: as §1

KCHSC = test: Pre-emergence action against KCHSC, 1280 g/ha; type: in vivo, Bassia scoparia; settings: scored visually after about 3 weeks vs untreated controls (100% = plants have died)
Procedure, shortened: as §2

STEME [29] = test: Post-emergence action against STEME, 1.28 kg/ha; type: in vivo, Stellaria media; settings: dosage 1280 g/ha, visual rating about 3 weeks after treatment vs untreated controls (100% = plants died)
Procedure, shortened: as §1

MATIN [30] = test: Post-emergence action against MATIN, 1.28 kg/ha; type: in vivo, Tripleurospermum inodorum (Matricaria inodora); settings: dosage 1280 g/ha, visual rating about 3 weeks after treatment vs untreated controls (100% = plants died)
Procedure, shortened: as §1

SMILES | Post-emergence action against VERPE (VERPE [1]) [%] | Post-emergence action against ABUTH (ABUTH [2]) [%] | Pre-emergence action against AMARE (AMARE [3]) [%] | Pre-emergence action against ECHGC in % (ECHGC) [%] | Pre-emergence action against LOLRI (LOLRI [4]) [%] | Pre-emergence action at 320 g/ha against ABUTH in % (ABUTH [5]) [%] | Pre-emergence action against VERPE in % (VERPE [6]) [%] | Post-emergence action against ALOMY (ALOMY [7]) [%] | Pre-emergence action against SETVI in % (SETVI [8]) [%] | Pre-emergence action against MATIN in % (MATIN [9]) [%] | Pre-emergence action against AVEFA in % (AVEFA) [%] | Post-emergence action against DIGSA (DIGSA [10]) [%] | Pre-emergence action against POLCO in % (POLCO) [%] | Post-emergence action against ECHCG (ECHCG [11]) [%] | Pre-emergence action against LOLRI in % (LOLRI [12]) [%] | Pre-emergence action at 320 g/ha against ALOMY in % (ALOMY [14]) [%] | Pre-emergence action against DIGSA in % (DIGSA [16]) [%] | Pre-emergence action against VIOTR in % (VIOTR) [%] | Pre-emergence action against AMARE in % (AMARE [22]) [%] | Pre-emergence action against PHBPU in % (PHBPU) [%] | also measured
CON(C)C(=O)COc1nn(-c2ccccc2F)c(-c2ccc(F)nc2)c1Br [Example X-019] | 90 | 90 | 100 | 100 | 100 | 80 | 100 | 100 | 100 | 100 | 80 | 90 | 90 | 100 | 100 | 100 | 100 | 100 | 100 | – | Pre-emergence action against VERPE (VERPE [13]): 90%; Pre-emergence action against DIGSA (DIGSA [15]): 100%; Pre-emergence action against ECHCG (ECHCG [17]): 100%; Pre-emergence action against STEME (STEME [18]): 90%; Post-emergence action against POAAN (POAAN [19]): 100%; Pre-emergence action against SETVI (SETVI [20]): 100%; Post-emergence action against AMARE (AMARE [21]): 90%; Pre-emergence action against ALOMY (ALOMY [23]): 100%; Pre-emergence action against POAAN (POAAN [24]): 100%; Pre-emergence action against MATIN (MATIN [25]): 100%; Post-emergence action against LOLRI (LOLRI [26]): 90%
CCOC(=O)CN(C)S(=O)(=O)NC(=O)COc1nn(-c2ccccc2F)c(-c2ccc(F)nc2)c1Br [Example X-031] | – | – | – | 80 | – | 80 | 90 | – | 100 | 80 | 80 | – | 80 | – | 80 | 90 | 100 | 90 | 90 | 90 | –
N#CCCOC(=O)COc1nn(-c2ccccc2F)c(-c2ccc(F)nc2)c1Br [VII-104] | 90 | 90 | 100 | 100 | 100 | 80 | 100 | 100 | 100 | 100 | 90 | 100 | 90 | 100 | 100 | 100 | 100 | 100 | 100 | 100 | Pre-emergence action against ABUTH (ABUTH [27]): 90%; Post-emergence action against SETVI (SETVI [28]): 90%; Pre-emergence action against KCHSC (KCHSC): 90%; Pre-emergence action against VERPE (VERPE [13]): 100%; Pre-emergence action against DIGSA (DIGSA [15]): 100%; Pre-emergence action against ECHCG (ECHCG [17]): 100%; Pre-emergence action against STEME (STEME [18]): 100%; Post-emergence action against POAAN (POAAN [19]): 100%; Pre-emergence action against SETVI (SETVI [20]): 100%; Post-emergence action against AMARE (AMARE [21]): 90%; Pre-emergence action against ALOMY (ALOMY [23]): 100%; Pre-emergence action against POAAN (POAAN [24]): 100%; Pre-emergence action against MATIN (MATIN [25]): 100%; Post-emergence action against LOLRI (LOLRI [26]): 100%; Post-emergence action against STEME (STEME [29]): 90%; Post-emergence action against MATIN (MATIN [30]): 100%
COC(=O)[C@@H](C)Oc1nn(-c2cc(F)ccc2F)c(-c2cncc(F)c2)c1I [VII-135] | – | – | – | 90 | – | 80 | 100 | – | 100 | 90 | 90 | – | 100 | – | 100 | 100 | – | 100 | 100 | 90 | –
CCOC(=O)[C@@H](C)Oc1nn(-c2cc(F)ccc2F)c(-c2cncc(F)c2)c1Br [VII-136] | – | – | – | 90 | – | 80 | 100 | – | 100 | 90 | 90 | – | 100 | – | 90 | 100 | – | 100 | 100 | 90 | –

From patent US12180187B2, “1-phenyl-5-azinylpyrazolyl-3-oxyalkyl acids and their use for controlling unwanted plant growth” (BAYER AKTIENGESELLSCHAFT, priority 2019, dated 2024)
